Tests used:
NCI-H520 cells = experiment: Cell growth/viability (MTT, microscopy); format: cell-based, human; conditions: 24-30 hr (50 μM, 30 hr in FIG. 5B)
Method: (§1) Lung, breast, ovarian, and other carcinoma cells were either obtained from American Type Culture Collection (ATCC) or from the DTP and DCTD Tumor Repository of National Cancer Institute (the NCI-60 cancer cell line panel), operated by Charles River Laboratory, Inc., as listed in Table 1. They were cultured according to instructions and treated with various concentrations of LSD1 inhibitors for 30-36 hours for mRNA analysis by quantitative real time RT-PCR or for 30-48 hours for protein analysis and the cell viability assays using Western blotting or microscopy and MTT assays as described previously (Wang, J., et al. (2011) Cancer Research 71, 7238-7249).
(§2) Alternatively, cell viability assays were conducted as previously described (Wang, J., et al. (2011) Cancer Research 71, 7238-7249). For the MTT assay, cells were seeded onto 96-well culture plates with a density of 2000-5000 cells/well, and incubated with CBB1003 or CBB1007 at various concentrations from 1 to 100 μM for 30-48 hours, depending cell growth rate. Dimethylsulfoxide (DMSO) was used as a solvent control. MTT was added to a final concentration of 0.5 mg/mL and cells were re-incubated for 4 hours. After removing the medium, 200 μL DMSO was added to dissolve formazan, followed by incubation for 10 minutes, and absorbance was measured at 490 nm by a Bio Red microplate reader. All assays were performed in triplicates for each concentration. The cell viability rate was calculated as the relative percentage of MTT absorption as follows: % cell viability=(mean experimental absorbance/mean control absorbance)×100. […]
(§3) Referring to FIG. 5C, the percent viability of cells treated with LSD1 inhibitors or siRNAs compared with control cells, as determined by 3-(4,5-dimethylthiazol-2-yl)-2,5-diphenyltetrazolium bromide (MTT) assay is shown. […] The statistical differences between inhibitor-treated and control groups were analyzed by one-way ANOVA (scale bar=[…]; **p<0.01).

NCI-H1437 cells = experiment: Cell growth/viability (MTT, microscopy); format: cell-based, human; conditions: 24-30 hr (50 μM, 30 hr in FIG. 5B)
Method: as §1, §2, §3

A549 cells = experiment: Cell growth/viability (MTT, microscopy); format: cell-based, human; conditions: 50 μM, 30 hr
Method: as §1, §2, §3

[1] = target: T1, recombinant HDAC1 (GST-HDAC1) (Homo sapiens, UniProt Q13547); experiment: In vitro deacetylation assay, recombinant HDAC1, H4K16ac peptide; format: biochemical; conditions: LSD1 and HDAC1 without CoREST
T1 construct: Human LSD1 and HDAC1 full-length cDNAs were obtained from Open Biosystems; GST (N, cleaved yes); made in house; host or cells: Escherichia coli BL21
T1 sequence (Q13547 whole entry): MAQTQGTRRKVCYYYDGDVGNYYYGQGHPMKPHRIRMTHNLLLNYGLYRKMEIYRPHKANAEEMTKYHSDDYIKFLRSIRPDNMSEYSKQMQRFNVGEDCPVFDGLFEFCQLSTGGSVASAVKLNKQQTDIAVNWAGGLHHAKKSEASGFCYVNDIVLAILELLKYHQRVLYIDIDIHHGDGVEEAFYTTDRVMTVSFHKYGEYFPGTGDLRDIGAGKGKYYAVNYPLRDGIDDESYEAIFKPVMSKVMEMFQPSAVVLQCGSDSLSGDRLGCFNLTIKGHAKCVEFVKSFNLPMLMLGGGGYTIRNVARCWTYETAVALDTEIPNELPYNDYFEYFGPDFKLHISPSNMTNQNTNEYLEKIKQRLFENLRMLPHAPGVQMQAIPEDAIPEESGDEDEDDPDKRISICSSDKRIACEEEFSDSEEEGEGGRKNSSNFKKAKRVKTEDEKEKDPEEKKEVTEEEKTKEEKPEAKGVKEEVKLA
Source text: Human LSD1 and HDAC1 full-length cDNAs were obtained from Open Biosystems. […] These cDNAs were fully sequenced and cloned into the pGEX-KG or pET28a vector and expressed as the glutathione S-transferase (GST)- or His-tagged fusion proteins in the Escherichia coli BL21 strain and affinity purified with glutathione or Ni-Sepharose (GE Healthcare, United Kingdom) resin. […] The GST tag and uncut GST-HDAC1/GST-LSD1 proteins were depleted by glutathione-Sepharose. For the reconstitution reaction, recombinant GST-CoREST, His-LSD1, and recombinant HDAC1 (rHDAC1) (GST was removed by the use of PreScission protease) (10 μg) were assembled into the LSD1-CoREST-HDAC1 complex and then pulled down by GSTSepharose resins. Protein A-Sepharose was used as a negative-control resin.
The percentages of deacetylated products were analyzed by mass spectrometry, and the data were analyzed by GraphPad Prism (version 5) software.

G401 cells = experiment: Cell growth/viability (MTT, microscopy); format: cell-based, human; conditions: 50 μM, 30 hours
Method: as §1
Alternatively, cell viability assays were conducted as previously described (Wang, J., et al. (2011) Cancer Research 71, 7238-7249). […] After removing the medium, 200 μL DMSO was added to dissolve formazan, followed by incubation for 10 minutes, and absorbance was measured at 490 nm by a Bio Red microplate reader. […] The cell viability rate was calculated as the relative percentage of MTT absorption as follows: % cell viability=(mean experimental absorbance/mean control absorbance)×100.
Referring to FIG. 10B, Sox2-expressing myelogenous leukemia and rhabdoid tumor cells were also sensitive to LSD1 inhibitors. […] The statistical differences between compound treated and control groups were analyzed by One-way ANOVA. *: p<0.05 and **: p<0.01.

Sox2 = Sox2 protein level by western blotting in carcinoma cells; format: cell-based, human; parameters: dose or concentration left out as unconfirmed; conditions: indicated carcinoma cells, 30 hr
Source text: Log-phase growing cancer cells were directly lysed in a buffer containing 0.5% SDS. Proteins in the lysates were equalized and analyzed by Western blotting using antibodies against Sox2, LSD1, H3K4Me1, H3K4Me2, Oct4, and other proteins as described previously or in the figure descriptions (Wang, J., et al. (2011) Cancer Research 71, 7238-7249). For immunohistochemical staining, rabbit monoclonal anti-LSD1 (clone C69G12, cat. #2184) and anti-Sox2 (clone D6D9, cat. #3579) antibodies were obtained from Cell Signaling. Rabbit anti-Sox2 polyclonal antibodies were raised using the purified GST-Sox2 fusion protein as the antigen.
Referring to FIG. 11A, inactivation of LSD1 by LSD1 inhibitors or siRNAs caused the downregulation of Sox2. The indicated carcinoma cells were treated with […] of the LSD1 inhibitors CBB1007 and CBB1003 for 30 hr or with 50 nM of Luc or LSD1 siRNAs for 60 hr. The protein levels of LSD1, Sox2, Lin28, CUL1, and histone H3 were analyzed by western blotting.

Q: With `COC(=O)c1cc(CN2CCN(C(=N)N)CC2)cc(C(=O)N2CCN(C(=O)c3ccc(C(=N)N)cc3)CC2)c1` [CBB1007] as the molecule, how does the cell growth (NCI-H520 cells) read?
A: Its cell growth is “selectively and specifically inhibit the growth”.

Q: What about the cell growth (NCI-H1437 cells) of the same molecule?
A: Its cell growth is “no detectable effects”.

Q: And the cell growth (A549 cells)?
A: Its cell growth is “specifically inhibited the growth”.

Q: What about the “HDAC1 activity in the absence of CoREST” value [1] of the same molecule?
A: The value was “not inhibited”.

Q: What about the cell growth (G401 cells) of the same molecule?
A: Its cell growth is “inhibited”.

Q: And the Sox2 protein level (Sox2)?
A: Its Sox2 protein level is “downregulation”.
